Measured values from patent US11723908B2, “Quinazoline derivatives as antitumor agents” (SUZHOU ZANRONG PHARMA LIMITED, priority 2018, dated 2023).
Where two headings read alike, the source gives them in different places.

Columns and labels:
P-glycoprotein (Pgp) = P-glycoprotein (Pgp) (Homo sapiens (Human), UniProt P08183); test: MDCK-MDR1 Pgp assessment; format: in vitro ADME; conditions: for Pgp substrate status: conclusion from Table 3; for efflux ratio at 2 h, 1 μM: dog, MDCK-MDR1 cells, 37° C. for 2 hours, read-out: PgpER
Protocol: Assay c): MDCK-MDR1 Pgp Assessment
Efflux transport mediated by P-glycoprotein (Pgp) was assessed by MDCK-MDR1 cells. The final concentrations of test compounds and control compound were at 1 μM. The multi-well insert plate was incubated at 37° C. for 2 hours.

HER2 = HER2 (Homo sapiens (Human), UniProt P04626); test: BT474 cellular assay (HER2 inhibition), phospho-HER2 ELISA; format: cell-based; conditions: inhibition of phosphor HER2, BT474 cells, 2 hours compound incubation
Summary of the method: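 BT474 cells seeded and grown 24 h, then exposed to compound for 2 h at 37 °C and lysed. Lysates assayed for phospho-HER2 by sandwich ELISA with TMB detection, absorbance read at 450 and 570 nm; IC50 values derived.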

hERG channel = hERG channel (Homo sapiens (Human), UniProt Q12809); test: hERG inhibition, manual patch clamp in HEK 293 cells; format: cell-based; conditions: for IC50: HEK 293 cell line stably expressing hERG channel, manual patch clamp; for hERG liability: conclusion from Table 3
Protocol: Assay f): hERG Inhibition Inhibition of hERG channel was conducted in HEK 293 cell line stably expressing hERG channel by manual patch clamp.

[1] = Mouse SOA study for brain penetration; format: in vivo; conditions: for Kp: male, balb/c, mouse, brain, po, 10 mg/kg, read-out: Mouse Kpu, u; for brain penetration in vivo: mouse SOA study, conclusion from Table 3
Protocol: Assay e) Mouse SOA Study for Brain Penetration
Six non-fasted male balb/c mice (6-8 weeks, 20-25 g) were orally administered at 10 mg/kg, using a suspension formulation of 1% methylcellulose (MC) in deionized water. Brain and blood samples were collected at 0.25, 0.5, 1, 2, 4, 7 hours after dose. Plasma was obtained by centrifuging the blood samples for 5 min at 4000 g and 4° C. Brain tissue was homogenized following addition of four times the volume of phosphate-buffered saline (pH 7.4). Quantification of the compound in plasma and brain was undertaken by LC-MS/MS. Area under the curve (AUC) was determined from 0 to 7 hours in the brain tissue and plasma.
Total brain to plasma concentration ratio Kp was determined using the equation: Brain Kp=AUC0-7 hr brain/AUC0-7 hr plasma
Unbound brain to plasma ratio was determined using the equation: Brain Kp,uu=Kp*fu,brain/fu,plasma
Unbound fraction (fu, plasma) and unbound fraction (fu, brain) were obtained from in vitro equilibrium dialysis by using plasma and brain homogenate, respectively.

wt-EGFR = wt-EGFR (Homo sapiens (Human), UniProt P00533); test: NCI H838 cellular assay (wt-EGFR inhibition), phospho-EGFR ELISA; format: cell-based
Protocol: Assay b) NCI H838 Cellular Assay (Wt-EGFR Inhibition) Inhibition of phosphor wt-EGFR was determined by enzyme-linked immunosorbent assay (ELISA) in NCI H838 cells (ATCC, catalog number CRL-5844). Human Phospho-EGFR DuoSet IC ELISA kit was purchased from R&D systems (catalog number DYC1095). Day 1: When the cells reach 70-90% confluence, cells were trypsinized and re-suspended. 5000 cells per well were seeded to a 384-well plate. The plate was incubated at 37° C. with 5% CO2 for 24 hours. Day 2: Cell culture medium was replaced with 40 μL FBS-Free RPMI1640. After 2 hours of starvation, the 384-well plate was dosed with 40 nL of compounds by Echo from source plate and the 384-well plate was incubated at 37° C. with 5% CO2 for 2 hours. After 2 hours of incubation with compounds, EGF (final concentration at 100 ng/ml) was added to the plate which was incubated at 37° C. with 5% CO2 for 5-10 minutes. Medium was discarded from the plate and 30 μl/well lysis buffer was added to the plate which was incubated at 4° C. for 10 minutes. The cell lysates can be stored at −80° C. in cell plates but must be thawed at room temperature for at least 30 minutes prior to use and continuing the assay. ELISA plate was coated by diluting capture antibody to 4 μg/ml with PBS, and 25 μl/well was dispensed to 384 well UltraCruz® ELISA Plate, which was incubated at 4° C. overnight. Day 3: After the plates were washed three times with 100 μl/well of wash buffer, the plates were blocked by adding 75 μl of Block Buffer to each well and incubated at room temperature for 3 hours. After the plates were washed three times with 100 μl/well of wash buffer, 20 μl cell lysate was transferred to the blocked ELISA plate which was incubated for 2 hours at room temperature. After the plates were washed three times with 100 μl/well of wash buffer, 25 μl/well detection antibody (dilute 1 in 900 in assay buffer) was added the plate which was incubated for 2 hours, protected from light. After washed three times, 25 μl/well TMB substrate was added to the ELISA plate which was incubated for about 10-15 min, protected from light before addition of 25 μl/well stop solution. Absorbance was read at 450 nm and 570 nm within 30 minutes.

BCRP = BCRP (Homo sapiens (Human), UniProt Q9UNQ0); test: Caco-2 BCRP assessment; format: in vitro ADME; conditions: for BCRP ER: Caco-2 cells, 1 μM, efflux ratio -/+ novobiocin 30 μM, >2 = BCRP substrate; for BCRP substrate status: conclusion from Table 3
Protocol: Assay d): Caco-2 BCRP Assessment
Caco-2 cells were used to study efflux transport mediated by BCRP. Rate of drug transport by BCRP was determined in the presence and absence of novobiocin, a strong inhibitor of BCRP, which was added to both apical and basolateral compartment sat a final concentration of 30 μM. The final concentrations of test compounds and control compound were at 1 μM. The multi-well insert plate was incubated at 37° C. for 2 hours. Efflux ratio (−inhibitor/+inhibitor)>2 was considered to be a BCRP substrate.

[2] = literature values; cited from earlier work
Pgp = conditions: literature statement; cited from earlier work

Sequence of wt-EGFR (P00533 25-1210): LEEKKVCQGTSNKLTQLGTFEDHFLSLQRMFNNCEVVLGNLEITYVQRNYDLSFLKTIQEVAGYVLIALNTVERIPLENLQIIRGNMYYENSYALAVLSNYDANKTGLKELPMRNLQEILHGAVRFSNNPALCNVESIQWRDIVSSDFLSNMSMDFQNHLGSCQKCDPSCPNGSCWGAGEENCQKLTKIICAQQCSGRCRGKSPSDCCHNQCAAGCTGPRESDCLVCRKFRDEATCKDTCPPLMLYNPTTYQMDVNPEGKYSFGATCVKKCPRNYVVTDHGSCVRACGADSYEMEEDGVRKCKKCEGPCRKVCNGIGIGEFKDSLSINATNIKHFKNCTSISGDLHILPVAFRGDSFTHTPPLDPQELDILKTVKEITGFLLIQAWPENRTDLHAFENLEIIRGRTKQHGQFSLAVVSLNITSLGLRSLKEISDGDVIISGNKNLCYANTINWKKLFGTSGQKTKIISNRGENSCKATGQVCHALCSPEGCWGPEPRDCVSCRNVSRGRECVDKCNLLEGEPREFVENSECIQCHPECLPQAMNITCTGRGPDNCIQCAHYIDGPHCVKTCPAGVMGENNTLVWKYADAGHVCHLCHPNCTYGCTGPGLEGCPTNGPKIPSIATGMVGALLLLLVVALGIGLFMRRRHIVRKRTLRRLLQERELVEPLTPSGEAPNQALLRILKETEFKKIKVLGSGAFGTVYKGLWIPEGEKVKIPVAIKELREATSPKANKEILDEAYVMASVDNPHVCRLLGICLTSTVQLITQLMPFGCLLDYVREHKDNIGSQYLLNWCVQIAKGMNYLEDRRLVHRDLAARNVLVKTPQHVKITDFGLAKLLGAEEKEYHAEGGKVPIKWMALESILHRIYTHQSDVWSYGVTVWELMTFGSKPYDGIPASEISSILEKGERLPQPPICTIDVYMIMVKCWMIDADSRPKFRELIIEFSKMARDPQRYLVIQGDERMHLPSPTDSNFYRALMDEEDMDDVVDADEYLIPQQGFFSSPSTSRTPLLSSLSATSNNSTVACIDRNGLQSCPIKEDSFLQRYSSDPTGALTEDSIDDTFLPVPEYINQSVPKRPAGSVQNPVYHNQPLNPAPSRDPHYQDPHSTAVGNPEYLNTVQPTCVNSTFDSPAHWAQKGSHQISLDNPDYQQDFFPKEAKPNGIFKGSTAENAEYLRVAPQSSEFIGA
Sequence of HER2 (P04626 23-1255): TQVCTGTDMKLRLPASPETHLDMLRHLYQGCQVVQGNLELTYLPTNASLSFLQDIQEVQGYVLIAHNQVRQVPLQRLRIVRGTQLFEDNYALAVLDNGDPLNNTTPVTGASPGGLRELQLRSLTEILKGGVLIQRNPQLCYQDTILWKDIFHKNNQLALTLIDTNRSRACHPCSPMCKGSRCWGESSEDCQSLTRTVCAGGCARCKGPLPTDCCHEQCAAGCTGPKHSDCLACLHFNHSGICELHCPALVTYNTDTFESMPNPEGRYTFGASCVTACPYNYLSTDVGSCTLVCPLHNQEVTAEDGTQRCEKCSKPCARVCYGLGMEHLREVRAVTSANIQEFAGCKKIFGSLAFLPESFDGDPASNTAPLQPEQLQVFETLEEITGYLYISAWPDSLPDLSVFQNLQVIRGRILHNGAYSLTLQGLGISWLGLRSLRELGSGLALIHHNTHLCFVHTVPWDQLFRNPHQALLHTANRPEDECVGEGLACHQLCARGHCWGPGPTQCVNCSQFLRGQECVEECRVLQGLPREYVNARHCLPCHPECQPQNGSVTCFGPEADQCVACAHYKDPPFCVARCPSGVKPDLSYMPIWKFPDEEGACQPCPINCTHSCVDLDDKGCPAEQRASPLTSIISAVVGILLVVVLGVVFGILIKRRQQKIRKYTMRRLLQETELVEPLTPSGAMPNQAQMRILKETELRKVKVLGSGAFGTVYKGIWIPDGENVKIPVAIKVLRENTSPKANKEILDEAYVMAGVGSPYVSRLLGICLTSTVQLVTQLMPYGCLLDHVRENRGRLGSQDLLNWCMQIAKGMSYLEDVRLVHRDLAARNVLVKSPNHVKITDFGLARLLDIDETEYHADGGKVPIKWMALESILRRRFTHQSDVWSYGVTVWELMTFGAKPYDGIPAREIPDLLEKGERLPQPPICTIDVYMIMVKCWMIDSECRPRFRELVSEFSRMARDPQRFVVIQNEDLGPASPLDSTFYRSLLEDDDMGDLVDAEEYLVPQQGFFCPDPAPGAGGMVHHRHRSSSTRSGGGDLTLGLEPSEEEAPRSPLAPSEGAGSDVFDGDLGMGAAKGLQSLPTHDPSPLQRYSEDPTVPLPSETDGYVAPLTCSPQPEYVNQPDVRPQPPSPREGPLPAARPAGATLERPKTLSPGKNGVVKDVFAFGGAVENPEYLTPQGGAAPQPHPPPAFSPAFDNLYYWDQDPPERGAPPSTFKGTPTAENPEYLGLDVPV
Sequence of BCRP (Q9UNQ0 whole entry): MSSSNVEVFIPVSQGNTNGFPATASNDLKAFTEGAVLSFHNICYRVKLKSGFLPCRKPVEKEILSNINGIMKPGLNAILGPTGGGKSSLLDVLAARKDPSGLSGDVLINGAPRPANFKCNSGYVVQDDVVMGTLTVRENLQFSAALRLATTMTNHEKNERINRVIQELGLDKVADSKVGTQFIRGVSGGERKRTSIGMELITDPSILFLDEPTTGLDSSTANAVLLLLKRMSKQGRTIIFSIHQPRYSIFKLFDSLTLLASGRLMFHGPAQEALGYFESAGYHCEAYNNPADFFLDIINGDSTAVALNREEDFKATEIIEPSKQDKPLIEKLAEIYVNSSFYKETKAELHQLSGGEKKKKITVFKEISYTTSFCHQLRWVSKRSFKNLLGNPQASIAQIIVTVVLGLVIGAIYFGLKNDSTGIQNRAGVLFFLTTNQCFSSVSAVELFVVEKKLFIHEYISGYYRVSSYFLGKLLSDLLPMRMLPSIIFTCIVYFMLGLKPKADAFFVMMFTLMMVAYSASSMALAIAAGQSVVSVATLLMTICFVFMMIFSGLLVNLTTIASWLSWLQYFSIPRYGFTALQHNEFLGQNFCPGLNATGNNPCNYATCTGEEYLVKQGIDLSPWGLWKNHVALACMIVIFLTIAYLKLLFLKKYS
Sequence of P-glycoprotein (Pgp) (P08183 whole entry): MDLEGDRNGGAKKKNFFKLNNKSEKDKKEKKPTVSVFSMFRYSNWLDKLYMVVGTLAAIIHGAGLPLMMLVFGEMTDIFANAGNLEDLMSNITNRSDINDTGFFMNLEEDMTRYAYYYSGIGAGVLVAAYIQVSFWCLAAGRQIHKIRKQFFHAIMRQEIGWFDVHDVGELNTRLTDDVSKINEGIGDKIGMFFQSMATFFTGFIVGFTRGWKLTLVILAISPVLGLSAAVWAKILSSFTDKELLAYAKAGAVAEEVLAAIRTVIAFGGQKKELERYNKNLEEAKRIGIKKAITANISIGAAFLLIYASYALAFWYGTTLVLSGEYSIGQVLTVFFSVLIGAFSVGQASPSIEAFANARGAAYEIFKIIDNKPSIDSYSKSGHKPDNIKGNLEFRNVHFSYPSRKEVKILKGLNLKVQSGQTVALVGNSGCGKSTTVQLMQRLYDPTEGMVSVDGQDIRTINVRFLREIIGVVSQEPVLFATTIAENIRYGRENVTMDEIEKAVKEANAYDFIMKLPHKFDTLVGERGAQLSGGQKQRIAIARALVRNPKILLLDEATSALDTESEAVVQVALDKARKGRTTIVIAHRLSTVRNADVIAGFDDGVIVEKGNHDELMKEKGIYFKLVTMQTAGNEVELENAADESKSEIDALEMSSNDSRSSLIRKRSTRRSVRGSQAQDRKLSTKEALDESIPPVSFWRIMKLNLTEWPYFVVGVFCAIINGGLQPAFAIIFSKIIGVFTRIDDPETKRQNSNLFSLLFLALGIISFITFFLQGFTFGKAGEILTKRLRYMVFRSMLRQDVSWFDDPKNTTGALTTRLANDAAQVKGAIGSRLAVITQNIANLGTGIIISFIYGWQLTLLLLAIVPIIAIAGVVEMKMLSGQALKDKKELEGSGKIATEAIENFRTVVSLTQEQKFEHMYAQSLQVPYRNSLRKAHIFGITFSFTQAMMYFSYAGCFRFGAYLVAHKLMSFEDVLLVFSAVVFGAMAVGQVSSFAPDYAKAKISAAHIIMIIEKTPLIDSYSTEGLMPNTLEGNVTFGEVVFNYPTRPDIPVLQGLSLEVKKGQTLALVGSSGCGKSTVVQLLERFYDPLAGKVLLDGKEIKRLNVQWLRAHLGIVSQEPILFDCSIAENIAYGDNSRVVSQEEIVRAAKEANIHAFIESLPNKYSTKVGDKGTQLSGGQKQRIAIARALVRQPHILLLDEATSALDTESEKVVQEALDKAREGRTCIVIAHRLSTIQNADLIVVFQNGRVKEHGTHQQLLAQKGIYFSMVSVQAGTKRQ

Structure (SMILES) | Pgp substrate status (P-glycoprotein (Pgp)) | efflux ratio at 2 h, 1 μM (P-glycoprotein (Pgp)) | IC50 (HER2) | IC50 (hERG channel) | hERG liability (hERG channel) | Kp [1] | brain penetration in vivo [1] | IC50 (wt-EGFR) | BCRP ER (BCRP) | BCRP substrate status (BCRP) | IC50 (wt-EGFR; inhibition of phosphor wt-EGFR, NCI H838 cells, EGF 100 ng/ml) | brain to blood ratio (Kp) [2] | Pgp substrate status (Pgp)
COc1ccc2ncnc(Nc3ccc(Oc4cc5ncnn5cn4)c(C)c3)c2c1O[C@@H]1CCN(C)CC1(F)F [Example 31, (R)—N-(4-([1,2,4]triazolo[1,5-c]pyrimidin-7-yloxy)-3-methylphenyl)-5-((3,3-difluoro-1-methylpiperidin-4-yl)oxy)-6-methoxyquinazolin-4-amine] | not Pgp or BCRP substrates | 1.3 | 9.5 nM | 18000 nM | do not show hERG liability | 0.26 | brain penetrable | 12000 nM | 0.68 | not Pgp or BCRP substrates |  |  | 
COc1ccc2ncnc(Nc3ccc(Oc4cc5ncnn5cn4)c(Cl)c3)c2c1O[C@@H]1CCN(C)CC1(F)F [Example 33, (R)—N-(4-([1,2,4]triazolo[1,5-c]pyrimidin-7-yloxy)-3-chlorophenyl)-5-((3,3-difluoro-1-methylpiperidin-4-yl)oxy)-6-methoxyquinazolin-4-amine] | not Pgp or BCRP substrates | 0.6 | 8 nM | 13300 nM | do not show hERG liability | 0.24 | brain penetrable |  | 1.3 | not Pgp or BCRP substrates | 400 nM |  | 
[2H]C([2H])([2H])Oc1ccc2ncnc(Nc3ccc(Oc4cc5ncnn5cn4)c(C)c3)c2c1O[C@@H]1CCN(C)CC1(F)F [Example 36, (R)—N-(4-([1,2,4]-triazolo[1,5-c]pyrimidin-7-yloxy)-3-methylphenyl)-5-((3,3-difluoro-1-methylpiperidin-4-yl)oxy)-6-(methoxy-d3)quinazolin-4-amine] | not Pgp or BCRP substrates | 0.81 | 11 nM | > 10000 nM | do not show hERG liability | 0.19 | brain penetrable | 440 nM | 1.8 | not Pgp or BCRP substrates |  |  | 
Cc1cc(Nc2ncnc3ccc(NC4=NC(C)(C)CO4)cc23)ccc1Oc1ccn2ncnc2c1 [Tucatinib] |  |  |  |  |  |  |  |  |  |  |  | 0.02-0.05 | strong Pgp substrate
CN(C)C/C=C/C(=O)Nc1cc2c(Nc3ccc(F)c(Cl)c3)ncnc2cc1O[C@H]1CCOC1 [afatinib] |  |  |  |  |  |  |  |  |  |  |  | < 0.08 | strong Pgp substrates
CS(=O)(=O)CCNCc1ccc(-c2ccc3ncnc(Nc4ccc(OCc5cccc(F)c5)c(Cl)c4)c3c2)o1 [lapatinib] |  |  |  |  |  |  |  |  |  |  |  | 0.04 | strong Pgp substrates
CCOc1cc2ncc(C#N)c(Nc3ccc(OCc4ccccn4)c(Cl)c3)c2cc1NC(=O)/C=C/CN(C)C [neratinib] |  |  |  |  |  |  |  |  |  |  |  | 0.079 | strong Pgp substrates
